Data from patent US20260042754A1, “Substituted Bicyclic Heteroaryl Sulfonamide Derivatives for the Treatment of Cancer” (NODUS ONCOLOGY LIMITED, priority 2022, published 2026).
Like-named read-outs stand apart in the source and are kept apart here.

Tests used:
[1] = target: Recombinant His-tagged human PARG protein (Homo sapiens (Human), UniProt Q86W56); assay: PARG enzymatic assay (TFMU-ADPr fluorescence); assay type: biochemical; conditions: 1 nM enzyme, 200 μM TFMU-ADPr, read after 30 minutes
Recombinant His-tagged human PARG protein, sequence (Q86W56 whole entry): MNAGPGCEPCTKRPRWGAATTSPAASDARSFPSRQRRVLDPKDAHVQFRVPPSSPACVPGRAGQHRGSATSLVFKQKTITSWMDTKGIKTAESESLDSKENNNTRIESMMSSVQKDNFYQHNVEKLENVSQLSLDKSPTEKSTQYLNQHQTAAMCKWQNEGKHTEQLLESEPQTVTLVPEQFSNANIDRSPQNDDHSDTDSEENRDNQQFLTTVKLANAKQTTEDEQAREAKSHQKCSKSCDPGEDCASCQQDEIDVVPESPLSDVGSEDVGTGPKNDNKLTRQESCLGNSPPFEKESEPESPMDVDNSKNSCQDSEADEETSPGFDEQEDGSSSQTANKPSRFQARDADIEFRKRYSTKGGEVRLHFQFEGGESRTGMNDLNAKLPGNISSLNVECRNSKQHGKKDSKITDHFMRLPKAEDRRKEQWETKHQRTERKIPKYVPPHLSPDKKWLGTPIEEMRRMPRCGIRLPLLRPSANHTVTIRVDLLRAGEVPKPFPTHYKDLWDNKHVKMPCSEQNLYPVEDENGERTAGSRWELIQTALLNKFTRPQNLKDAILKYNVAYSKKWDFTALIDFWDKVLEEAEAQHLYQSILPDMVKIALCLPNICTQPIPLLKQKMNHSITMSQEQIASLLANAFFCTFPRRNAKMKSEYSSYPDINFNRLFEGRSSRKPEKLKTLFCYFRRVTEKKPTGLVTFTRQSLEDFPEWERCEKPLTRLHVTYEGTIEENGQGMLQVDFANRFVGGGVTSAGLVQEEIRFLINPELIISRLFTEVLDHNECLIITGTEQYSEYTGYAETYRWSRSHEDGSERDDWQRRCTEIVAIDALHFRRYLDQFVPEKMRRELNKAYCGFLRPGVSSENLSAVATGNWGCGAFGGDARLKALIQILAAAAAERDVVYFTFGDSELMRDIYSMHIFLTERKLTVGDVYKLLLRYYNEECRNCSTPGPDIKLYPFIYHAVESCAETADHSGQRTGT
Experimental: Inhibition of PARG enzymatic activity by compounds was determined as follows: Recombinant His-tagged human PARG protein expressed in Sf21 insect cells (Adipogen AG, #40T-0022) was aliquoted and stored at −80° C. until use. The artificial enzyme substrate 4-(trifluoromethyl)umbelliferone (TFMU)-ADPr was prepared essentially as described (Drown B S et al, Cell Chemical Biology 2018) and stored at −20° C. as 10 mM stock solutions in DMSO (dimethyl sulfoxide) until use. For reactions, typical final concentration of the enzyme was 1 nM and of the TFMU-ADPr 200 μM. Reactions were carried out in black 384-well low volume round bottom assay plates (Corning, #4514) in a final volume of 10 μL. To this end, PARG was diluted to 1.67 nM in reaction buffer (50 mM K2HPO4, 50 mM KCl, 10 mM β-mercaptoethanol, pH 7.4) and 6 μL were dispensed per assay well using a multichannel pipette. Then compound was dispensed into each well using an Echo dispenser (BeckmanCoulter) to yield the pre-specified final concentration of the range of concentrations to be tested (typically 8-point serial concentrations ranging from either from 0.01 to 10 μM, or from 0.001 to 1 μM, or from 0.0001 to 0.1 μM), and being volume-corrected with 100% DMSO (0.5% final DMSO concentration in reaction mixtures). Plates were mixed, and after 15 minutes 4 μL TFMU-ADPr was added into each well using a multichannel pipette followed by brief mixing. Fluorescence intensity signals were then measured after 30 minutes on an EnVision microplate reader (PerkinElmer) using 380/10 nm and 535/25 nm filters for the excitation and emission, respectively (gain: 150). The assay window was set using DMSO control (top) and a control containing no PARG enzyme (bottom). Delta values were plotted as concentration-response curves fitted to a sigmoidal 4-parameter logistic model to calculate IC50 values (Scigilian Analyze).

[2] = target: human PARG (PARG-NanoLuc fusion in HEK293T cells) (Homo sapiens (Human), UniProt Q86W56); assay: PARG NanoBRET-based cellular target engagement assay; assay type: cell-based; conditions: HEK293T cells transfected with PARG-NanoLuc, NanoBRET probe 0.89 μM, 2 hours; read-out: PARG TE IC50
human PARG (PARG-NanoLuc fusion in HEK293T cells), sequence (Q86W56 whole entry, the tested form may be a part): as the sequence (Q86W56 whole entry) above
Experimental: PARG Nano-luciferase construct: The PARG-NanoLuc® fusion vector was generated by Promega, by inserting the full length human PARG cDNA sequence encoding the 976 amino acid protein (Gene ID: 8505, UniProt: Q86W56) into the pNLF1-C [CMV/Hygro] vector (C-terminal fusions with NanoLuc® enzyme).
PARG target engagement tracer synthesis: The NanoBRET tracer for PARG was prepared following a previously reported general tracer synthesis procedure.
PARG Probe Displacement Assay Using NanoBRET: HEK293T (DSMZ #ACC 635) cells transiently transfected with the PARG-NanoLuc fusion construct were resuspended in phenol red-free OptiMEM (Gibco #11058-021) to a concentration of 2.4×10^5 cells/mL. 9 μL per well were then added to a white 384-well low volume microplate (Greiner #784080) and incubated for 24 hours under standard growth conditions.
Then compound was dispensed into each well using an Echo dispenser (BeckmanCoulter) to yield the pre-specified final concentration of the range of concentrations to be tested (typically 8-point serial concentrations ranging from either from 0.01 to 10 μM, or from 0.001 to 1 μM, or from 0.0001 to 0.1 μM), and being volume-corrected with 100% DMSO (0.5% final DMSO concentration in reaction mixtures).
After mixing and an incubation at room temperature for 15 min 1 μl of the NanoBRET probe (at 0.89 μM final concentration) was added to the microplate using a multichannel pipette. The plate was mixed and incubated in a 5% CO2 environment at 37° C. for 2 hours, and then 5 μL per well of a solution consisting of a 1:31.25 dilution of Nano-Glo substrate (Promega) and a 1:500 dilution of NanoLuc extracellular inhibitor (Promega) in phenol red-free OptiMEM was added to each well followed by another mixing step. Filtered luminescence was measured on an EnVision plate reader (PerkinElmer) equipped with a 460 nm filter (donor) and a 645 nm filter (acceptor). BRET ratios were plotted as concentration-response curves fitted to a sigmoidal 4-parameter logistic model to calculate IC50 values (Scigilian Analyze).

[3] = test system: NCI-H1650; assay: Modified cell proliferation assay (CellTiter-Glo), NCI-H1650; assay type: cell-based; conditions: modified protocol, 384-well, 300 cells per well, 120 h, highest concentration tested 30000 nM, read-out: NCI-H1650 GI50 (high PARG dependency)
Experimental: The cell proliferation assay protocol was modified and used for RMUG-S for Examples 12-44, and subsequently used to test Examples 1-44 in the NCI-H1650 cell line.
NCI-H1650 (ATCC, #CRL-5883) or RMUG-S were seeded on day 1 at 300 cells per well in a 384-well plate (Greiner, #781080) that assure assay linearity and optimal signal intensity in 25 μL of RPMI1640 media (Pan Biotech, #P04-22100) containing 10% FCS (Capricorn, #FBS-11A; Lot. CP22-5141) and 1% Glutamine (Pan Biotech, #P04-80100). After incubation for 24 h in humidified chambers at 37° C./5% CO2, compounds/DMSO were dispensed at different concentrations using an Echo 520 (Beckman Coulter). Cells were further incubated for 120 h at 37° C. and 5% CO2. Cells treated with the compound vehicle DMSO were used as negative controls and cells treated with 10 μM Staurosporine (LC Laboratories, #S-9300) served as positive controls.
At day 6 the CellTiter Glo Reagent was prepared according to the instructions of the kit (Promega Inc.): Reagent was mixed 1:1 with cell culture medium. Thereon, mixture and assay plates were equilibrated at room temperature for 20 min. Equal volumes of the reagent-medium-mixture were added to the volume of culture medium present in each well. The plates were mixed at […] for 2 minutes on an orbital shaker (Timix5, Edmund Buehler GmbH). The microplates were then incubated at room temperature for 10 minutes for stabilization of the luminescent signal. Following incubation, the luminescence was recorded on a Victor X5 microplate reader (Perkin Elmer) using a 200 ms integration time. The data was then analyzed with Excel using the XLFIT Plugin (dose response Fit 205) for determination of the concentration necessary for half-maximal inhibition (i.e. the inflection point of the fitted curve).
As quality control the Z′-factor was calculated from 16 positive and negative control values. Only assay results showing a Z′-factor≥0.5 were used for further analysis.

**Q.** Which results are given for `CO/N=c1\[nH]c2c(C3=C[C@@H](C)NCC3)cc(S(=O)(=O)NC3(C)CC3)cc2c(=O)n1Cc1cnn(C)c1` [Example 13, (R,E)-2-(methoxyimino)-8-(6-methyl-1,2,3,6-tetrahydropyridin-4-yl)-3-((1-methyl-1H-pyrazol-4-yl)methyl)-N-(1-methylcyclopropyl)-4-oxo-1,2,3,4-tetrahydroquinazoline-6-sulfonamide/(R,E)-2-(methoxyimino)-8-(2-methyl-1,2,3,6-tetrahydropyridin-4-yl)-3-((1-methyl-1H-pyrazol-4-yl)methyl)-N-(1-methylcyclopropyl)-4-oxo-1,2,3,4-tetrahydroquinazoline-6-sulfonamide]?
**A.** IC50 [1]: < 0.03 µM; IC50 [2]: 0.03 to 0.099 µM; GI50 [3]: 0.5 to 2 µM

**Q.** Which IC50 [1] does the source give for `CO/N=c1\[nH]c2c(N3CCN(C(=O)CC(F)(F)F)[C@H](C)C3)cc(S(=O)(=O)NC3(C)CC3)cc2c(=O)n1Cc1cnn(C)c1` [Example 31, (R,E)-2-(methoxyimino)-3-((1-methyl-1H-pyrazol-4-yl)methyl)-8-(3-methyl-4-(3,3,3-trifluoropropanoyl)piperazin-1-yl)-N-(1-methylcyclopropyl)-4-oxo-1,2,3,4-tetrahydroquinazoline-6-sulfonamide] here?
**A.** < 0.03 µM

**Q.** What about the IC50 [2] of the same compound?
**A.** < 0.03 µM

**Q.** What about the GI50 ([3]; Homo sapiens, NCI-H1650) of the same compound?
**A.** < 0.5 µM

**Q.** Which results are given for `CO/N=c1\[nH]c2c(N3CCN(C(=O)N4CCCC4)[C@H](C)C3)cc(S(=O)(=O)NC3(C)CC3)cc2c(=O)n1Cc1cnn(C)c1` [Example 40, (R,E)-2-(methoxyimino)-3-((1-methyl-1H-pyrazol-4-yl)methyl)-8-(3-methyl-4-(pyrrolidine-1-carbonyl)piperazin-1-yl)-N-(1-methylcyclopropyl)-4-oxo-1,2,3,4-tetrahydroquinazoline-6-sulfonamide]?
**A.** IC50 [1]: < 0.03 µM; IC50 [2]: < 0.03 µM; GI50 ([3]; Homo sapiens, NCI-H1650): < 0.5 µM

**Q.** With `CO/N=c1\[nH]c2c(Cl)cc(S(=O)(=O)NC3(C)CC3)cc2c(=O)n1Cc1cnn(C)c1` [Example 4, 8-chloro-2-methoxyimino-N-(1-methylcyclopropyl)-3-[(1-methylpyrazol-4-yl)methyl]-4-oxo-1H-quinazoline-6-sulfonamide] as the compound, how does the IC50 [1] read?
**A.** < 0.03 µM

**Q.** What about the IC50 [2] of the same compound?
**A.** 0.03 to 0.099 µM

**Q.** And the GI50 ([3]; Homo sapiens, NCI-H1650)?
**A.** > 2 µM

**Q.** `CO/N=c1\[nH]c2c(-c3ccc(C(=O)N(C)C)cn3)cc(S(=O)(=O)NC3(C)CC3)cc2c(=O)n1Cc1cnn(C)c1` [Example 20, (E)-6-(2-(methoxyimino)-3-((1-methyl-1H-pyrazol-4-yl)methyl)-6-(N-(1-methylcyclopropyl)sulfamoyl)-4-oxo-1,2,3,4-tetrahydroquinazolin-8-yl)-N,N-dimethylnicotinamide] was tested. Which IC50 [1] did it give?
**A.** < 0.03 µM

**Q.** And the IC50 [2]?
**A.** < 0.03 µM

**Q.** What about the GI50 ([3]; Homo sapiens, NCI-H1650) of the same compound?
**A.** 0.5 to 2 µM

**Q.** How did the IC50 [1] turn out when `CCO/N=c1\[nH]c2ccc(S(=O)(=O)NC3(C)CC3)cc2c(=O)n1Cc1cnn(C)c1` [Example 10, 2-ethoxyimino-N-(1-methylcyclopropyl)-3-[(1-methylpyrazol-4-yl)methyl]-4-oxo-1H-quinazoline-6-sulfonamide] was run?
**A.** < 0.03 µM

**Q.** And the IC50 [2]?
**A.** 0.03 to 0.099 µM

**Q.** And the GI50 ([3]; Homo sapiens, NCI-H1650)?
**A.** 0.5 to 2 µM

**Q.** What does the source list for `CO/N=c1\[nH]c2c(-c3ccc(C(=O)C4(C)CC4)cc3)cc(S(=O)(=O)NC3(C)CC3)cc2c(=O)n1Cc1cnn(C)c1` [Example 18, (E)-2-(methoxyimino)-3-((1-methyl-1H-pyrazol-4-yl)methyl)-8-(4-(1-methylcyclopropane-1-carbonyl)phenyl)-N-(1-methylcyclopropyl)-4-oxo-1,2,3,4-tetrahydroquinazoline-6-sulfonamide]?
**A.** IC50 [1]: < 0.03 µM; IC50 [2]: < 0.03 µM; GI50 ([3]; Homo sapiens, NCI-H1650): 0.5 to 2 µM

**Q.** Which results are given for `CO/N=c1\[nH]c2c(N3CCN(C(=O)C4(N(C)C)CC4)[C@H](C)C3)cc(S(=O)(=O)NC3(C)CC3)cc2c(=O)n1Cc1cnn(C)c1` [Example 34, (R,E)-8-(4-(1-(dimethylamino)cyclopropane-1-carbonyl)-3-methylpiperazin-1-yl)-2-(methoxyimino)-3-((1-methyl-1H-pyrazol-4-yl)methyl)-N-(1-methylcyclopropyl)-4-oxo-1,2,3,4-tetrahydroquinazoline-6-sulfonamide]?
**A.** IC50 [1]: < 0.03 µM; IC50 [2]: < 0.03 µM; GI50 ([3]; Homo sapiens, NCI-H1650): < 0.5 µM

**Q.** Which IC50 [1] does the source give for `CO/N=c1\[nH]c2c(N3CCN(C(=O)C4CCCC4)[C@H](C)C3)cc(S(=O)(=O)NC3(C)CC3)cc2c(=O)n1Cc1cnn(C)c1` [Example 39, (R,E)-8-(4-(cyclopentanecarbonyl)-3-methylpiperazin-1-yl)-2-(methoxyimino)-3-((1-methyl-1H-pyrazol-4-yl)methyl)-N-(1-methylcyclopropyl)-4-oxo-1,2,3,4-tetrahydroquinazoline-6-sulfonamide] here?
**A.** < 0.03 µM

**Q.** And the IC50 [2]?
**A.** < 0.03 µM

**Q.** What about the GI50 ([3]; Homo sapiens, NCI-H1650) of the same compound?
**A.** < 0.5 µM

**Q.** How did the IC50 [1] turn out when `CO/N=c1\[nH]c2c(N3CCN(C(=O)N(C)C)[C@H](C)C3)cc(S(=O)(=O)NC3(C)CC3)cc2c(=O)n1Cc1cnn(C)c1` [Example 41, (R,E)-4-(2-(methoxyimino)-3-((1-methyl-1H-pyrazol-4-yl)methyl)-6-(N-(1-methylcyclopropyl)sulfamoyl)-4-oxo-1,2,3,4-tetrahydroquinazolin-8-yl)-N,N,2-trimethylpiperazine-1-carboxamide] was run?
**A.** < 0.03 µM

**Q.** What about the IC50 [2] of the same compound?
**A.** < 0.03 µM

**Q.** What about the GI50 ([3]; Homo sapiens, NCI-H1650) of the same compound?
**A.** < 0.5 µM

**Q.** With `CO/N=c1\[nH]c2c(N3CCN(C(C)=O)[C@H](C)C3)cc(S(=O)(=O)NC3(C)CC3)cc2c(=O)n1Cc1cnn(C)c1` [Example 12, (2E)-2-methoxyimino-N-(1-methylcyclopropyl)-3-[(1-methylpyrazol-4-yl)methyl]-4-oxo-8-[(3R)-4-acetyl-3-methyl-piperazin-1-yl]-1H-quinazoline-6-sulfonamide] as the compound, how does the IC50 [1] read?
**A.** < 0.03 µM

**Q.** What about the IC50 [2] of the same compound?
**A.** < 0.03 µM

**Q.** And the GI50 ([3]; Homo sapiens, NCI-H1650)?
**A.** < 0.5 µM
